# Reference: patent US20150374672A1, “PRE-SELECTION OF SUBJECTS FOR THERAPEUTIC TREATMENT WITH AN HSP90 INHIBITORY COMPOUND BASED ON CHEMOSENSITIVE STATUS” (Synta Pharmaceuticals Corp., priority 2014, published 2015)
# Key:
# [1] = test system: advanced solid tumor malignancies; assay: Phase 1 dose-escalation, pharmacokinetic study of ganetespib in combination with docetaxel; type: in vivo, human; details: ganetespib schedule Days 1 and 15 of each cycle, preliminary data
# Method: Patients were dosed once-weekly. Dosing was with 150 mg/m^2 ganetespib (days 1 and 15)+60 mg/m^2 docetaxel (Day 1). Initial ganetespib dosing regimen was Days 1 and 8; however, Day 8 was later changed to Day 15. Day 4 dosing with single agent ganetespib was added. The dose cycle was 2 weeks+1 week rest. The primary objective of this study was to determine the recommended doses for the combination of ganetespib and docetaxel in patients with advanced solid tumor malignancies. Secondary objectives were to define the DLTs associated with ganetespib in combination with docetaxel dosing, assess possible PK effects, and evaluate the safety, tolerability, and preliminary evidence of anti-tumor activity of the combination. A total of 27 patients were enrolled.
# [2] = Safety of ganetespib across clinical trials (over 1,000 patients); type: in vivo, human
# Description: Ganetespib has been evaluated in a broad range of cancer clinical trials including the GALAXY NSCLC program (GALAXY-1 and GALAXY-2) in combination with docetaxel chemotherapy, and as monotherapy in certain genetically-defined targeted patient populations. A favorable safety profile has been consistently observed across clinical trials, involving over 1,000 patients treated with ganetespib to date. […] In the clinical trials conducted to date, ganetespib has shown promising activity both in combination with chemotherapy and as a monotherapy.
# [3] = test system: solid and hematologic cancers; assay: Preclinical studies of anti-cancer activity; details: monotherapy and in combination with widely used anti-cancer agents
# advanced NSCLC = assay: GALAXY-1 Phase 2b trial, ganetespib plus docetaxel vs. docetaxel alone: OS and PFS; type: in vivo, human
# Description: The GALAXY-1 trial was initiated in patients with advanced NSCLC who received one prior treatment for advanced disease, i.e., a second-line treatment setting. GALAXY-1 compared treatment with docetaxel (D) alone, which is approved for second-line treatment, vs. treatment with ganetespib (G) plus docetaxel (D). The aims of the study were to:
# The key GALAXY-1 patient populations comprised populations with (1) elevated LDH (eLDH), (2) KRAS mutations (mKRAS) and/or (3) time since diagnosis of cancer of 6 months or greater (chemosensitive). A rationale for selecting a population with elevated LDH is that LDH-A is a marker of HIF-1α activity, and HIF-1α is a Hsp90 client, and drives invasiveness and metastasis. A rationale for selecting a population with KRAS mutation is that RAS signaling kinases are Hsp90 clients, and there is a medical need. A rationale for selecting a population in which the time since diagnosis of cancer is 6 months or greater (chemosensitive population) is that key cell cycle checkpoint/DNA repair kinases are Hsp90 clients. Additionally, key mitochondrial apoptosis pathway proteins are Hsp90 clients.
# (§1) Patients in both arms of GALAXY-1 received a standard regimen of docetaxel 75 mg/m^2 on day 1 of a 21-day treatment cycle. Patients in the combination arm also received ganetespib 150 mg/m^2 on days 1 and 15. Treatment continued until disease progression or until treatment intolerance. To ensure balance of prognostic factors between the two arms, patients were stratified by ECOG performance status (these scales and criteria are used by doctors and researchers to assess how a patient's disease is progressing, assess how the disease affects the daily living abilities of the patient, and determine appropriate treatment and prognosis), baseline lactate dehydrogenase (LDH) level, smoking status, and time since diagnosis of advanced disease.
# To ensure the specified number of eLDH and mKRAS patients were included, a total of 385 patients were enrolled in GALAXY-1.
# Hazard ratios were calculated with Cox proportional hazards model. • Unadjusted: univariate analysis • Adjusted: pre-specified analysis adjusting for multiple prognostic variables such as gender, smoking status, LDH, ECOG performance status, interval since diagnosis of advanced disease, age, total baseline target lesion size, and geographic region.
# This was a randomized, multicenter, parallel group study. Patients in both arms were treated with docetaxel per standard practice until disease progression or intolerability. Patients on both arms were treated until intolerability or disease progression per RECIST.
# Key eligibility criteria were Stage IIIB/IV NSCLC; ECOG 0,1; one prior therapy in advanced setting; measurable disease by RECIST; documented disease progression; clinically stable CNS metastases; available tumor tissues; and adequate organ function.
# Patients were randomized in a 1:1 ratio to receive either ganetespib in combination with docetaxel or docetaxel alone.
# The experimental arm was dosed with ganetespib in combination with docetaxel 75 mg/m^2. Ganetespib (150 mg/m^2) and docetaxel (75 mg/m^2) were administered on Day 1 of a 3-week cycle. Ganetespib (150 mg/m^2) was administered again on Day 15 of each 3-week cycle. Docetaxel 75 mg/m^2 was administered on Day 1 of a 3-week treatment cycle. 385 patients were enrolled. A total of 381 patients received at least one dose of study drug.
# [4] = GALAXY-1 safety profile (adverse events) in adenocarcinoma patients
# Method: as §1
# [5] = Adenocarcinoma population, N = 253
# [6] = Chemosensitive population, N = 177
smiles,measurement,setting,value
CC(C)c1cc(-c2nnc(O)n2-c2ccc3c(ccn3C)c2)c(O)cc1O [Ganetespib],recommended Phase 2 dose,[1],150 mg/m^2
same,most common adverse event,[2]; clinical trials,"transient, mild or moderate diarrhea"
same,toxicities observed across clinical trials,"[2]; over 1,000 patients treated",not shown the serious liver or common ocular toxicities
same,anti-cancer activity in preclinical studies,[3],potent anti-cancer activity
"CC(=O)O[C@@]12CO[C@@H]1C[C@H](O)[C@@]1(C)C(=O)[C@H](O)C3=C(C)[C@@H](OC(=O)[C@H](O)[C@@H](NC(=O)OC(C)(C)C)c4ccccc4)C[C@@](O)([C@@H](OC(=O)c4ccccc4)[C@H]21)C3(C)C [D, docetaxel]",Median OS,advanced NSCLC; [5],8.4 months
same,Median PFS,advanced NSCLC; [5],3.2 months
same,Median OS,advanced NSCLC; [6],7.4 months
same,Median PFS,advanced NSCLC; [6],3.4 months
same,Median OS,"advanced NSCLC; eLDH population, N = 87",5.1 months
same,Median PFS,"advanced NSCLC; eLDH population, N = 87",2.7 months
same,Median OS,"advanced NSCLC; mKRAS population, N = 89",6.4 months
same,Median PFS,"advanced NSCLC; mKRAS population, N = 89",3.0 months
same,proportion of patients with AEs leading to death,[4]; adenocarcinoma patients,12%
same,"diarrhea, all grades","[4]; human, in vivo",16%
same,"fatigue, all grades","[4]; human, in vivo",24%
same,grade 3 or 4 anemia,"[4]; human, in vivo",2%
same,grade 3 or 4 fatigue,"[4]; human, in vivo",4%
same,grade 3 or 4 febrile neutropenia,"[4]; human, in vivo",4%
same,grade 3 or 4 neutropenia,"[4]; human, in vivo",42%
same,incidence of grade 3 or 4 diarrhea,"[4]; human, in vivo",0%
same,"neutropenia, all grades","[4]; human, in vivo",45%
same,proportion of patients with AEs leading to treatment discontinuation,"[4]; human, in vivo",6%
same,recommended Phase 2 dose,[1],75 mg/m^2
